The results in this text go back to patent publication US4294832A, “Tetrahydroisoquinoline compounds and a pharmaceutical composition thereof” (Tanabe Seiyaku Co., Ltd., priority 1979, dated 1981).

One data set has as its system mice. The data set is described as follows: Oral toxicity in mice. Format: in vivo, mouse. The settings on record: 2 g/kg orally. How it is done: Furthermore, when a test compound was administered orally to spontaneously hypertensive rats, 3(S)-2-[N-ethyl-N-(2-n-butoxycarbonylethyl)carbamoyl]-1,2,3,4-tetrahydroisoquinoline-3-carboxylic acid 1/2 calcium salt at a dose of 50 mg/kg decreased the blood pressure by 24 mm Hg. In addition, the toxicity of the compound (I) is considerably low. For example, when 3(S)-2-[N-ethyl-N-(2-n-butoxycarbonylethyl)carbamoyl]-1,2,3,4-tetrahydroisoquinoline-3-carboxylic acid 1/2 calcium salt was administered orally to mice at a dose of 2 g/kg, no mouse died within 7 days after said administration.

Data set [1] has as its system spontaneously hypertensive rats (SHR). The data set can be described thus: Hypotensive activity in SHR (systolic blood pressure, tail plethysmographic technique). Format: in vivo, rat. The settings on record: 50 mg/kg orally. As for the experimental part:
Hypotensive activity in SHR:
A test compound (dose: 50 mg/kg) suspended in an aqueous carboxymethylcellulose solution was administered orally to spontaneously hypertensive rats (SHR) fasted overnight. The systolic blood pressure of the rats was measured by the tail plethysmographic technique (The Journal of Laboratory and Clinical Medicine 78(1971), page 957). The hypotensive activity of the test compound was estimated from the decreased level of blood pressure.

Counter-ions that a name gives are not always drawn.

For the compound `CCCCOC(=O)CCN(CC)C(=O)N1Cc2ccccc2C[C@H]1C(=O)O` [3(S)-2-[N-ethyl-N-(2-n-butoxycarbonylethyl)carbamoyl]-1,2,3,4-tetrahydroisoquinoline-3-carboxylic acid 1/2 calcium salt], in the data set with mice, the “mortality within 7 days after administration” value is listed as “no mouse died”. In data set [1] (SHR fasted overnight, systolic), the “Decrease in blood pressure (-Δ mm Hg)” value was determined as 24 mm Hg. Moreover, in data set [1] (hypotensive action, SHR), the Duration of action was above 6 h.
